Assay results taken from ChEMBL document CHEMBL1147992, “Glaziovianin A, a new isoflavone, from the leaves of Ateleia glazioviana and its cytotoxic activity against human cancer cells” (Bioorg Med Chem Lett, 2007).
Activity calls are given as the source filed them. No cut-off for these calls is given here.

Legend:
HL-60 = test: Cytotoxicity against human HL60 cells by MTT assay after 72 hrs; format: functional, cell-based; details: HL-60, 72 h
LOX IMVI = test: Cytotoxicity against human LOX-IMVI cells by MTT assay after 72 hrs; format: functional
SF-268 = test: Cytotoxicity against human SF268 cells by MTT assay after 72 hrs; format: functional; details: SF-268, 72 h
[1] = Cytotoxicity against human […] cells by MTT assay after 72 hrs; format: functional
HCT-15 = test: Cytotoxicity against human HCT15 cells by MTT assay after 72 hrs; format: functional; details: HCT-15, 72 h
NCI-H23 = test: Cytotoxicity against human NCIH23 cells by MTT assay after 72 hrs; format: functional; details: NCI-H23, 72 h
MKN-45 = test: Cytotoxicity against human MKN45 cells by MTT assay after 72 hrs; format: functional; details: MKN-45, 72 h
St-4 = test: Cytotoxicity against human St4 cells by MTT assay after 72 hrs; format: functional; details: St-4, 72 h
MDA-MB-231 = test: Cytotoxicity against human MDA-MB-231 cells by MTT assay after 72 hrs; format: functional; details: MDA-MB-231, 72 h
DU-145 = test: Cytotoxicity against human DU145 cells by MTT assay after 72 hrs; format: functional; details: DU-145, 72 h
[2] = Cell cycle arrest in rat 3Y1 cells by accumulation at M phase at 3 uM after 18 hrs; format: functional, cell-based
[3] = Cytotoxicity against human HBC5 cells by MTT assay after 72 hrs; format: functional; details: HBC5, 72 h
MKN-74 = test: Cytotoxicity against human MKN74 cells by MTT assay after 72 hrs; format: functional; details: MKN-74, 72 h
SNB-75 = test: Cytotoxicity against human SNB75 cells by MTT assay after 72 hrs; format: functional; details: SNB-75, 72 h
A549 = test: Cytotoxicity against human A549 cells by MTT assay after 72 hrs; format: functional; details: A549, 72 h
NCI-H522 = test: Cytotoxicity against human NCIH522 cells by MTT assay after 72 hrs; format: functional; details: NCI-H522, 72 h
HCC 2998 = test: Cytotoxicity against human HCC2998 cells by MTT assay after 72 hrs; format: functional; details: HCC 2998, 72 h
ACHN = test: Cytotoxicity against human ACHN cells by MTT assay after 72 hrs; format: functional
OVCAR-3 = test: Cytotoxicity against human OVCAR-3 cells by MTT assay after 72 hrs; format: functional; details: OVCAR-3, 72 h
DMS-114 = test: Cytotoxicity against human DMS114 cells by MTT assay after 72 hrs; format: functional; details: DMS-114, 72 h
MCF7 = test: Cytotoxicity against human MCF7 cells by MTT assay after 72 hrs; format: functional; details: MCF7, 72 h
SF-539 = test: Cytotoxicity against human SF539 cells by MTT assay after 72 hrs; format: functional; details: SF-539, 72 h
OVCAR-5 = test: Cytotoxicity against human OVCAR5 cells by MTT assay after 72 hrs; format: functional; details: OVCAR-5, 72 h
PC-3 = test: Cytotoxicity against human PC3 cells by MTT assay after 72 hrs; format: functional; details: PC-3, 72 h
[4] = Cytotoxicity against human HBC4 cells by MTT assay after 72 hrs; format: functional; details: HBC4, 72 h
OVCAR-8 = test: Cytotoxicity against human OVCAR8 cells by MTT assay after 72 hrs; format: functional; details: OVCAR-8, 72 h
3Y1 = test: Disruption of microtubules in rat 3Y1 cells at 1 uM after 18 hrs; format: functional, cell-based
DMS-273 = test: Cytotoxicity against human DMS273 cells by MTT assay after 72 hrs; format: functional; details: DMS-273, 72 h
SNB-78 = test: Cytotoxicity against human SNB78 cells by MTT assay after 72 hrs; format: functional; details: SNB-78, 72 h
[5] = Cytotoxicity against human RXF631L cells by MTT assay after 72 hrs; format: functional; details: RXF 631, 72 h
MKN-28 = test: Cytotoxicity against human MKN28 cells by MTT assay after 72 hrs; format: functional; details: MKN-28, 72 h
SF-295 = test: Cytotoxicity against human SF295 cells by MTT assay after 72 hrs; format: functional; details: SF-295, 72 h
U-251 = test: Cytotoxicity against human U251 cells by MTT assay after 72 hrs; format: functional; details: U-251, 72 h
[6] = Cytotoxicity against human BSY1 cells by MTT assay after 72 hrs; format: functional; details: BSY-1, 72 h
KM12 = test: Cytotoxicity against human KM12 cells by MTT assay after 72 hrs; format: functional; details: KM12, 72 h
[7] = Cytotoxicity against human MKN1 cells by MTT assay after 72 hrs; format: functional; details: MKN-1, 72 h
OVCAR-4 = test: Cytotoxicity against human OVCAR4 cells by MTT assay after 72 hrs; format: functional; details: OVCAR-4, 72 h
HCT-116 = test: Cytotoxicity against human HCT116 cells by MTT assay after 72 hrs; format: functional; details: HCT-116, 72 h
SK-OV-3 = test: Cytotoxicity against human SK-OV3 cells by MTT assay after 72 hrs; format: functional; details: SK-OV-3, 72 h
NCI-H460 = test: Cytotoxicity against human NCIH460 cells by MTT assay after 72 hrs; format: functional; details: NCI-H460, 72 h
MKN-7 = test: Cytotoxicity against human MKN7 cells by MTT assay after 72 hrs; format: functional; details: MKN-7, 72 h
HT-29 = test: Cytotoxicity against human HT29 cells by MTT assay after 72 hrs; format: functional; details: HT-29, 72 h

COc1cc(OC)c(-c2coc3cc(OC)c(OC)cc3c2=O)cc1OC
IC50 (HL-60): 8.5 µM

COc1ccc(-c2coc3cc(OC)c(OC)cc3c2=O)cc1OC
IC50 (HL-60): 23 µM

COc1cc2occ(-c3cc4c(cc3OC)OCO4)c(=O)c2cc1OC
IC50 (HL-60): 16 µM

COc1cc2occ(-c3cc(OC)c4c(c3OC)OCO4)c(=O)c2cc1OC [GLAZIOVIANIN A]
GI50 (LOX IMVI): 0.87 µM | GI50 (SF-268): 0.83 µM | GI50 [1]: 0.58 µM | GI50 (HCT-15): 0.29 µM | GI50 (NCI-H23): 5.13 µM | GI50 (MKN-45): 0.68 µM | GI50 (St-4): 15.1 µM | GI50 (MDA-MB-231): 1.1 µM | GI50 (DU-145): 0.59 µM | Activity [2]: Active | GI50 [3]: 0.47 µM | GI50 (MKN-74): 0.39 µM | GI50 (SNB-75): 0.63 µM | GI50 (A549): 0.83 µM | GI50 (NCI-H522): 0.23 µM | GI50 (HCC 2998): 3.02 µM | GI50 (ACHN): 0.62 µM | GI50 (OVCAR-3): 0.13 µM | GI50 (DMS-114): 0.2 µM | GI50 (MCF7): 0.39 µM | GI50 (SF-539): 0.32 µM | GI50 (OVCAR-5): 2.19 µM | GI50 (PC-3): 0.1 µM | GI50 [4]: 1.95 µM | GI50 (OVCAR-8): 1.51 µM | Activity (3Y1): Active | GI50 (DMS-273): 0.13 µM | GI50 (SNB-78): 10.7 µM | GI50 [5]: 0.51 µM | GI50 (MKN-28): 0.45 µM | GI50 (SF-295): 0.34 µM | GI50 (U-251): 0.79 µM | GI50 [6]: 0.05 µM | GI50 (KM12): 0.32 µM | GI50 [7]: 0.69 µM | GI50 (OVCAR-4): 10.5 µM | GI50 (HCT-116): 0.56 µM | IC50 (HL-60): 0.29 µM | GI50 (SK-OV-3): 0.28 µM | GI50 (NCI-H460): 0.41 µM | GI50 (MKN-7): 1.51 µM | GI50 (HT-29): 0.46 µM
